From the CheMixHub drug solubility set

Experiment: xn = mol fraction of the nth substance listed, in the solute-free solvent

Cc1c(Br)cccc1C(=O)O + CN(C)C=O + O
solubility (g/100 g solution)
Details | x2 = 0.039 | x2 = 0.091 | x2 = 0.16 | x2 = 0.259 | x2 = 0.411 | x2 = 0.677
278.15 K | 5.54 | 9.19 | 12.7 | 16.1 | 19.4 | 22.9
283.15 K | 8.07 | 11.1 | 15.1 | 18.9 | 22.7 | 26.7
288.15 K | 6.03 | 11.5 | 16.6 | 21.4 | 26 | 30.7
293.15 K | 9.6 | 15.3 | 20.6 | 25.5 | 30.3 | 35.3
298.15 K | 11.6 | 18.1 | 23.9 | 29.3 | 34.6 | 40.1
303.15 K | 13.8 | 21 | 27.5 | 33.4 | 39.2 | 45.3
308.15 K | 16 | 24.1 | 31.1 | 37.6 | 43.8 | 50.5
313.15 K | 18.6 | 27.5 | 35.2 | 42.1 | 48.7 | 55.9
318.15 K | 21.6 | 31.2 | 39.4 | 46.6 | 53.5 | 61.2
323.15 K | 24.4 | 35 | 43.7 | 51.3 | 58.6 | 66.8
328.15 K | 27.9 | 39 | 48.1 | 55.9 | 63.4 | 72

Nc1cccc(S(=O)(=O)c2cccc(N)c2)c1 + CN(C)C=O + O
solubility (g/100 g solution)
Details | 283.15 K | 288.15 K | 293.15 K | 298.15 K | 303.15 K | 308.15 K | 313.15 K | 318.15 K | 323.15 K | 328.15 K
x2 = 0.02666 | 0.202 | 0.267 | 0.355 | 0.463 | 0.615 | 0.787 | 1.01 | 1.26 | 1.53 | 1.97
x2 = 0.05806 | 0.784 | 1.03 | 1.32 | 1.65 | 2.08 | 2.63 | 3.23 | 3.98 | 4.79 | 5.92
x2 = 0.09556 | 2.09 | 2.63 | 3.21 | 3.95 | 4.75 | 5.77 | 6.85 | 8.08 | 9.45 | 11
x2 = 0.1412 | 4.93 | 5.86 | 6.87 | 8.09 | 9.39 | 10.8 | 12.4 | 14.1 | 15.9 | 17.7
x2 = 0.1978 | 7.85 | 9.25 | 10.8 | 12.5 | 14.2 | 16.2 | 18.4 | 20.5 | 22.9 | 25.4
x2 = 0.27 | 11.4 | 13 | 15 | 16.9 | 19.1 | 21.5 | 23.9 | 26.7 | 29.3 | 32.1
x2 = 0.3652 | 14.4 | 16.6 | 18.8 | 21.2 | 23.6 | 26.3 | 29.1 | 31.9 | 34.6 | 37.4
x2 = 0.4965 | 17.8 | 20.1 | 22.5 | 25.2 | 27.8 | 30.7 | 33.8 | 36.6 | 39.7 | 42.6
x2 = 0.6893 | 20.8 | 23.1 | 25.7 | 28.2 | 31.1 | 33.9 | 36.5 | 39.4 | 42.3 | 45.4

Nc1nccnc1Cl + CN(C)C=O + O
solubility (g/100 g solution)
Details | 278.15 K | 283.15 K | 288.15 K | 293.15 K | 298.15 K | 303.15 K | 308.15 K | 313.15 K | 318.15 K | 323.15 K
x2 = 0.02666 | 0.123 | 0.162 | 0.208 | 0.257 | 0.308 | 0.359 | 0.41 | 0.469 | 0.522 | 0.579
x2 = 0.05806 | 0.379 | 0.491 | 0.623 | 0.761 | 0.903 | 1.04 | 1.18 | 1.34 | 1.47 | 1.62
x2 = 0.09556 | 0.721 | 0.929 | 1.17 | 1.43 | 1.69 | 1.95 | 2.2 | 2.48 | 2.72 | 2.98
x2 = 0.1412 | 1.01 | 1.3 | 1.64 | 2.01 | 2.38 | 2.75 | 3.11 | 3.5 | 3.86 | 4.23
x2 = 0.1978 | 1.14 | 1.5 | 1.9 | 2.35 | 2.8 | 3.27 | 3.75 | 4.24 | 4.69 | 5.16
x2 = 0.27 | 1.26 | 1.69 | 2.14 | 2.67 | 3.17 | 3.72 | 4.29 | 4.84 | 5.41 | 6.03
x2 = 0.3652 | 1.38 | 1.82 | 2.33 | 2.93 | 3.56 | 4.17 | 4.81 | 5.48 | 6.15 | 6.86
x2 = 0.4965 | 1.5 | 2.02 | 2.55 | 3.24 | 3.93 | 4.64 | 5.37 | 6.21 | 7 | 7.83
x2 = 0.6893 | 1.59 | 2.12 | 2.72 | 3.45 | 4.22 | 5.01 | 5.87 | 6.75 | 7.69 | 8.67
